T/C data for twelve molecules are collected here from PubChem BioAssay AID250 (DTP/NCI, 2004).

Inconclusive results and toxic doses are left out.

The assay concerns BDF1 mice, L1210 leukemia sc, survival T/C. Nature of the assay: NCI In Vivo Anticancer Drug Screen. Data for tumor model L1210 Leukemia (subcutaneous) in B6D2F1 (BDF1) mice. Particulars: endpoint: median survival time, higher = longer survival. In a few lines:
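Tumors were transplanted into mice, the animals were treated with compound, survival or tumor size was then measured, and treated values were divided by vehicle-control values.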

Setting [1] is: dose: 39.0 mg/kg/injection, schedule: Q01DX Z (sc), vehicle: saline.
Where [2] appears, read: dose: 0.65 mg/kg/injection, schedule: Q01DX Z (sc), vehicle: methylcellulose (MC).
Where [3] appears, read: dose: 1.08 mg/kg/injection, schedule: Q01DX Z (sc), vehicle: methylcellulose (MC).
The mark [4] stands for this setting: dose: 1.8 mg/kg/injection, schedule: Q01DX Z (sc), vehicle: methylcellulose (MC).
The mark [5] stands for this setting: dose: 3.0 mg/kg/injection, schedule: Q01DX Z (sc), vehicle: methylcellulose (MC).
Where [6] appears, read: dose: 14.0 mg/kg/injection, schedule: Q01DX Z (sc), vehicle: methylcellulose (MC).

On to `COCCCN=C(N)c1ccc(NC(=O)c2ccc(C(=O)Nc3ccc(C(N)=NCCCOC)cc3)cc2)cc1`, for which the T/C runs as follows: (dose: 8.4 mg/kg/injection, schedule: Q01DX Z (sc), vehicle: saline) 158 % of control; under setting [1], 100 % of control.
With `CN(C)c1ccc(/C=C/c2cc[n+](C)c3ccccc23)cc1`, the T/C runs as follows: under setting [2], 109 % of control; under setting [3], 109 % of control; under setting [4], 109 % of control; under setting [5], 109 % of control.
Regarding `O=C(Nc1ccc(NC2=NCCN2)cc1)c1ccc(C(=O)Nc2ccc(NC3=NCCN3)cc2)cc1`, the T/C is 110 % of control (dose: 1.08 mg/kg/injection, schedule: Q01DX Z (sc), vehicle: water); 110 % of control (dose: 1.8 mg/kg/injection, schedule: Q01DX Z (sc), vehicle: water); 260 % of control (dose: 5.0 mg/kg/injection, schedule: Q01DX Z (sc), vehicle: water); 175 % of control (dose: 8.4 mg/kg/injection, schedule: Q01DX Z (sc), vehicle: water); 150 % of control (dose: 14.0 mg/kg/injection, schedule: Q01DX Z (sc), vehicle: water).
With `O=C(O)CCCc1ccc(N(CCCl)CCCl)cc1`, the T/C (dose: 8.4 mg/kg/injection, schedule: Q01DX Z (sc), vehicle: methylcellulose (MC)) is 100 % of control; the T/C under setting [6] was 100 % of control; the T/C (dose: 23.0 mg/kg/injection, schedule: Q01DX Z (sc), vehicle: methylcellulose (MC)) was 100 % of control; the T/C (dose: 39.0 mg/kg/injection, schedule: Q01DX Z (sc), vehicle: methylcellulose (MC)) was 110 % of control.
Consider `CS(=O)(=O)OCC(O)C(O)COS(C)(=O)=O` (stereo not drawn), for which the T/C under setting [1] was 95 % of control; the T/C (dose: 65.0 mg/kg/injection, schedule: Q01DX Z (sc), vehicle: saline) is 91 % of control; the T/C (dose: 108.0 mg/kg/injection, schedule: Q01DX Z (sc), vehicle: saline) is 91 % of control; the T/C (dose: 180.0 mg/kg/injection, schedule: Q01DX Z (sc), vehicle: saline) is 91 % of control; the T/C (dose: 300.0 mg/kg/injection, schedule: Q01DX Z (sc), vehicle: saline) is 100 % of control.
For `S=c1nc[nH]c2c1ncn2C1C=CCCC1` (stereo not drawn), the T/C by setting is: under setting [6], 100 % of control; (dose: 23.4 mg/kg/injection, schedule: Q01DX Z (sc), vehicle: methylcellulose (MC)) 100 % of control; (dose: 108.0 mg/kg/injection, schedule: Q01DX Z (sc), vehicle: methylcellulose (MC)) 100 % of control.
Turning to `Nc1cc(C(=O)Nc2ccc(C3=NCCN3)cc2)ccc1C(=O)Nc1ccc(C2=NCCN2)cc1`, the T/C is, setting by setting: (dose: 1.0 mg/kg/injection, schedule: Q01DX Z (iv), vehicle: water) 100 % of control; (dose: 2.0 mg/kg/injection, schedule: Q01DX Z (iv), vehicle: water) 100 % of control; (dose: 2.0 mg/kg/injection, schedule: Q01DX Z (sc), vehicle: water) 110 % of control; (dose: 4.0 mg/kg/injection, schedule: Q01DX Z (iv), vehicle: water) 120 % of control; (dose: 4.0 mg/kg/injection, schedule: Q01DX Z (sc), vehicle: water) 215 % of control; (dose: 8.0 mg/kg/injection, schedule: Q01DX Z (iv), vehicle: water) 215 % of control. The T/C reads like this: (dose: 8.0 mg/kg/injection, schedule: Q01DX Z (sc), vehicle: water) 230 % of control; (dose: 16.0 mg/kg/injection, schedule: Q01DX Z (iv), vehicle: water) 215 % of control; (dose: 16.0 mg/kg/injection, schedule: Q01DX Z (sc), vehicle: water) 245 % of control; (dose: 32.0 mg/kg/injection, schedule: Q01DX Z (sc), vehicle: water) 195 % of control.
Take `Nc1ccc(O)cc1`: the T/C is, setting by setting: (dose: 130.0 mg/kg/injection, schedule: Q01DX Z (sc), vehicle: other) 95 % of control; (dose: 216.0 mg/kg/injection, schedule: Q01DX Z (sc), vehicle: other) 116 % of control; (dose: 300.0 mg/kg/injection, schedule: Q01DX Z (sc), vehicle: methylcellulose (MC)) 112 % of control; (dose: 500.0 mg/kg/injection, schedule: Q01DX Z (sc), vehicle: methylcellulose (MC)) 112 % of control; (dose: 600.0 mg/kg/injection, schedule: Q01DX Z (sc), vehicle: other) 87 % of control.
For `O=c1[nH]cc(S)c(=O)[nH]1`, the T/C was 100 % of control (dose: 23.0 mg/kg/injection, schedule: Q01DX Z (sc), vehicle: other); 100 % of control (dose: 39.0 mg/kg/injection, schedule: Q01DX Z (sc), vehicle: other); 100 % of control (dose: 65.0 mg/kg/injection, schedule: Q01DX Z (sc), vehicle: other); 110 % of control (dose: 108.0 mg/kg/injection, schedule: Q01DX Z (sc), vehicle: other); 110 % of control (dose: 180.0 mg/kg/injection, schedule: Q01DX Z (sc), vehicle: other); 100 % of control (dose: 300.0 mg/kg/injection, schedule: Q01DX Z (sc), vehicle: other).
With `COc1cccc2c1C(=O)c1c(O)c3c(c(O)c1C2=O)CC(O)(C(C)=O)CC3OC1CC(N)C(O)C(C)O1` (stereo not drawn), the T/C (dose: 11.7 mg/kg/injection, schedule: Q04DX003 (ip), vehicle: saline) is 90 % of control; the T/C (dose: 23.4 mg/kg/injection, schedule: Q04DX003 (ip), vehicle: saline) is 94 % of control; the T/C (dose: 46.8 mg/kg/injection, schedule: Q04DX003 (ip), vehicle: saline) was 91 % of control; the T/C (dose: 93.6 mg/kg/injection, schedule: Q04DX003 (ip), vehicle: saline) was 91 % of control; the T/C (dose: 187.2 mg/kg/injection, schedule: Q04DX003 (ip), vehicle: saline) is 90 % of control.
Take `CCN(O)C(N)=O`: the T/C (dose: 1.0 mg/kg/injection, schedule: Q01DX Z (sc), vehicle: methylcellulose (MC)) is 95 % of control; the T/C (dose: 2.0 mg/kg/injection, schedule: Q01DX Z (sc), vehicle: methylcellulose (MC)) was 104 % of control; the T/C (dose: 4.0 mg/kg/injection, schedule: Q01DX Z (sc), vehicle: methylcellulose (MC)) was 91 % of control; the T/C (dose: 8.0 mg/kg/injection, schedule: Q01DX Z (sc), vehicle: methylcellulose (MC)) is 100 % of control; the T/C (dose: 16.0 mg/kg/injection, schedule: Q01DX Z (sc), vehicle: methylcellulose (MC)) was 100 % of control; the T/C (dose: 31.0 mg/kg/injection, schedule: Q01DX Z (sc), vehicle: methylcellulose (MC)) is 100 % of control. In addition, the T/C by setting is: (dose: 62.0 mg/kg/injection, schedule: Q01DX Z (sc), vehicle: methylcellulose (MC)) 100 % of control; (dose: 125.0 mg/kg/injection, schedule: Q01DX Z (sc), vehicle: methylcellulose (MC)) 100 % of control; (dose: 250.0 mg/kg/injection, schedule: Q01DX Z (sc), vehicle: methylcellulose (MC)) 112 % of control.
Regarding `CN(C)c1ccc(/C=C/c2ccc3ccccc3[n+]2C)cc1`, the T/C under setting [2] is 100 % of control; the T/C under setting [3] is 100 % of control; the T/C under setting [4] was 104 % of control; the T/C under setting [5] is 104 % of control; the T/C (dose: 5.0 mg/kg/injection, schedule: Q01DX Z (sc), vehicle: methylcellulose (MC)) is 104 % of control.
